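Abbreviation: GI50, concentration required for 50% inhibition of growth. At the TGI there is no net growth.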
Tests used:
Assay in all cases: NCI tumour cell line growth inhibition, 384-well format
[1] = test system: SW-620 colon
[2] = test system: T-47D breast
[3] = test system: OVCAR-3 ovarian
[4] = test system: EKVX NSCLC
[5] = test system: SNB-75 CNS
[6] = test system: HOP-92 NSCLC
[7] = test system: CCRF-CEM leukemia
[8] = test system: UO-31 renal
[9] = test system: 786-0 renal
[10] = test system: PC-3 prostate
[11] = test system: HS 578T breast
[12] = test system: RPMI-8226 leukemia
[13] = test system: NCI-H226 lung
[14] = test system: MALME-3M melanoma
[15] = test system: TK-10 renal
[16] = test system: HCT-116 colon
[17] = test system: SN12C renal
[18] = test system: DU-145 prostate
[19] = test system: RXF 393 renal
[20] = test system: MCF7 breast
[21] = test system: SK-MEL-2 melanoma
[22] = test system: SK-MEL-28 melanoma
[23] = test system: MDA-MB-468 breast
[24] = test system: MDA-MB-231 breast
[25] = test system: SF-268 CNS
[26] = test system: A498 renal
[27] = test system: CAKI-1 renal
[28] = test system: MDA-MB-435 melanoma
[29] = test system: LOX IMVI melanoma
[30] = test system: SF-539 CNS
[31] = test system: UACC-257 melanoma
[32] = test system: BT-549 breast
[33] = test system: MOLT-4 leukemia
[34] = test system: NCI-H23 lung
[35] = test system: NCI-H522 lung
[36] = test system: SK-MEL-5 melanoma
[37] = test system: SR leukemia
[38] = test system: HT29 colon
[39] = test system: NCI/ADR-RES ovarian
[40] = test system: OVCAR-5 ovarian
[41] = test system: M14 melanoma
[42] = test system: NCI-H460 NSCLC
[43] = test system: HCC-2998 colon
[44] = test system: COLO 205 colon
[45] = test system: OVCAR-4 ovarian
[46] = test system: SF-295 CNS
[47] = test system: SNB-19 CNS

c1cn2cc(-c3ccc4cn[nH]c4c3)nc(Nc3ccc(N4CCOCC4)cc3)c2n1
GI50 [1]: 33.1 µM
TGI [1]: > 100 µM
GI50 [2]: 3.73 µM
TGI [2]: 21.2 µM
GI50 [3]: 12.7 µM
TGI [3]: 28.3 µM
GI50 [4]: 9.48 µM
TGI [4]: 25.1 µM
GI50 [5]: 2.15 µM
TGI [5]: 9.11 µM
GI50 [6]: 5.8 µM
TGI [6]: 19.1 µM
GI50 [7]: > 100 µM
TGI [7]: > 100 µM
GI50 [8]: 12.4 µM
TGI [8]: 32 µM
GI50 [9]: 8.76 µM
TGI [9]: 21.1 µM
GI50 [10]: 14.1 µM
TGI [10]: 28.7 µM
GI50 [11]: 1.87 µM
TGI [11]: 8.11 µM
GI50 [12]: 16.9 µM
TGI [12]: > 58.6 µM
GI50 [13]: 9.38 µM
TGI [13]: 23 µM
GI50 [14]: 6.24 µM
TGI [14]: 19.4 µM
GI50 [15]: 5.67 µM
TGI [15]: 22 µM
GI50 [16]: 15 µM
TGI [16]: 34.3 µM
GI50 [17]: 10 µM
TGI [17]: 22.6 µM
GI50 [18]: 10 µM
TGI [18]: 22.7 µM
GI50 [19]: 2.44 µM
TGI [19]: 13.3 µM
GI50 [20]: 8.62 µM
TGI [20]: 30.2 µM
GI50 [21]: 1.67 µM
TGI [21]: 8.99 µM
GI50 [22]: 12.4 µM
TGI [22]: 29.6 µM
GI50 [23]: 16.1 µM
TGI [23]: 57.1 µM
GI50 [24]: 10.1 µM
TGI [24]: 21.9 µM
GI50 [25]: 4.45 µM
TGI [25]: 16.9 µM
GI50 [26]: 3.26 µM
TGI [26]: 16.6 µM
GI50 [27]: 11.9 µM
TGI [27]: 25.3 µM
GI50 [28]: 22.6 µM
TGI [28]: > 75.5 µM
GI50 [29]: 15.4 µM
TGI [29]: 36.6 µM
GI50 [30]: 4.6 µM
TGI [30]: 16.5 µM
GI50 [31]: 11.5 µM
TGI [31]: 27.6 µM
GI50 [32]: 11.2 µM
TGI [32]: 23.5 µM
GI50 [33]: 48 µM
TGI [33]: > 100 µM
GI50 [34]: 10.8 µM
TGI [34]: 25.7 µM
GI50 [35]: 3.46 µM
TGI [35]: 12.8 µM
GI50 [36]: 11.3 µM
TGI [36]: 32.8 µM
GI50 [37]: 5.01 µM
TGI [37]: 14.5 µM
GI50 [38]: 28.1 µM
TGI [38]: > 100 µM
GI50 [39]: 11.7 µM
TGI [39]: 29.6 µM
GI50 [40]: 12.8 µM
TGI [40]: 30.3 µM
GI50 [41]: 23.5 µM
TGI [41]: 86.6 µM
GI50 [42]: 11.1 µM
TGI [42]: 24.6 µM
GI50 [43]: 17.5 µM
TGI [43]: > 85.7 µM
GI50 [44]: 37.8 µM
TGI [44]: > 100 µM
GI50 [45]: 6.52 µM
TGI [45]: 20 µM
GI50 [46]: 13.7 µM
TGI [46]: 27.4 µM
GI50 [47]: 8.81 µM
TGI [47]: 21.4 µM

C=CC(=O)N[C@H]1CCOC[C@H]1Nc1ncc2cc(-c3c(Cl)c(OC)cc(OC)c3Cl)ccc2n1
GI50 [1]: 19 µM
TGI [1]: > 52.5 µM
GI50 [2]: 5.24 µM
TGI [2]: 23 µM
GI50 [3]: 13.9 µM
TGI [3]: 34 µM
GI50 [4]: 12.3 µM
TGI [4]: 39.6 µM
GI50 [5]: 6.99 µM
TGI [5]: 33.5 µM
GI50 [6]: 7.37 µM
TGI [6]: 28.2 µM
GI50 [7]: 9.81 µM
TGI [7]: 22.2 µM
GI50 [8]: 23.3 µM
TGI [8]: 98 µM
GI50 [9]: 16.5 µM
TGI [9]: 50.1 µM
GI50 [10]: 20.3 µM
TGI [10]: 66.2 µM
GI50 [11]: 12 µM
TGI [11]: 27.9 µM
GI50 [12]: 4.12 µM
TGI [12]: 15 µM
GI50 [13]: 4.55 µM
TGI [13]: 20.8 µM
GI50 [14]: > 53.7 µM
TGI [14]: > 100 µM
GI50 [15]: 20.9 µM
TGI [15]: > 95.6 µM
GI50 [16]: 15.1 µM
TGI [16]: 33.6 µM
GI50 [17]: 15.4 µM
TGI [17]: 75 µM
GI50 [18]: 27.4 µM
TGI [18]: > 100 µM
GI50 [19]: 8.65 µM
TGI [19]: 26.2 µM
GI50 [20]: 11.9 µM
TGI [20]: 46.4 µM
GI50 [21]: 15.9 µM
TGI [21]: 30.4 µM
GI50 [22]: 35.6 µM
TGI [22]: > 100 µM
GI50 [23]: 3.37 µM
TGI [23]: 13.9 µM
GI50 [24]: 9.96 µM
TGI [24]: > 78.7 µM
GI50 [25]: 4.16 µM
TGI [25]: 23.9 µM
GI50 [26]: 10.6 µM
TGI [26]: 40.2 µM
GI50 [27]: 12 µM
TGI [27]: 82.4 µM
GI50 [28]: > 64.3 µM
TGI [28]: > 100 µM
GI50 [29]: 13 µM
TGI [29]: 27.3 µM
GI50 [30]: 13.5 µM
TGI [30]: 28.2 µM
GI50 [31]: 13.9 µM
TGI [31]: 38.8 µM
GI50 [32]: 4.77 µM
TGI [32]: 19.5 µM
GI50 [33]: 2.59 µM
TGI [33]: 14.8 µM
GI50 [34]: 16.9 µM
TGI [34]: 63.9 µM
GI50 [35]: 13.9 µM
TGI [35]: 32.2 µM
GI50 [36]: 10.9 µM
TGI [36]: 23.6 µM
GI50 [37]: 5.39 µM
TGI [37]: 19 µM
GI50 [38]: 14 µM
TGI [38]: 96.2 µM
GI50 [39]: 12.9 µM
TGI [39]: 30.8 µM
GI50 [40]: 27.5 µM
TGI [40]: > 88.4 µM
GI50 [41]: 16.8 µM
TGI [41]: > 69.2 µM
GI50 [42]: 11.8 µM
TGI [42]: 25.7 µM
GI50 [43]: 16.2 µM
TGI [43]: 32.5 µM
GI50 [44]: 18.2 µM
TGI [44]: 46.1 µM
GI50 [45]: 14.9 µM
TGI [45]: 54.1 µM
GI50 [46]: 28.1 µM
TGI [46]: > 86.7 µM
GI50 [47]: 19.2 µM
TGI [47]: 55.7 µM
